Experimental data as given in patent US6348309B1, “Process for inactivating viruses in blood and blood products” (priority 1989, dated 2002).
Marks after values point to notes of the source that are not given here.

How the values were obtained:
VSV [1] = type: cell-based, vesicular stomatitis virus
factor VIII = target: T1, factor VIII (Homo sapiens, UniProt P00451); assay: Factor VIII content of plasma after MB and adsorbing agent (Example 14); type: biochemical; conditions: fresh plasma + MB 10 μM, no adsorbing agent
T1 construct: MB was added to 250 ml fresh plasma; from tissue; host or cells: fresh plasma

Suid Herpes Type 1 = type: cell-based
West Nile = assay: MB/light virus inactivation in plasma (Example 6, Table VI); type: cell-based; conditions: illumination 60 min
Sindbis = type: cell-based
[2] = test system: vesicular stomatitis virus (VSV); type: cell-based
Calici = type: cell-based
SV40 = type: cell-based
Semliki Forest = type: cell-based
HIV-1 [3] = assay: MB/light virus inactivation in plasma (Example 6, Table VI); type: cell-based; conditions: illumination 10 min
[4] = 1 to 2 mg/kg of body weight; cited from earlier work
Influenza = type: cell-based
HIV-1 [5] = assay: MB/light treatment of HIV-1 in plasma, infectivity on MT-4 cells (Example 5); type: cell-based
VSV [6] = type: cell-based, vesicular stomatitis virus; remark: listed apart in the source
Herpes Simplex = assay: MB/light virus inactivation in plasma (Example 6, Table VI); type: cell-based; conditions: illumination 60 min; * production conditions, plastic bag 250-300 ml plasma
Bovine Herpes = assay: as above; type: cell-based; conditions: illumination 30 min; * production conditions, plastic bag 250-300 ml plasma
factor V = target: T2, factor V (Homo sapiens, UniProt P12259); assay: Factor V content of plasma after MB and adsorbing agent (Example 14); type: biochemical; conditions: fresh plasma + MB 10 μM, no adsorbing agent
T2 construct: MB was added to 250 ml fresh plasma; from tissue; host or cells: fresh plasma

coagulation factor IX = target: T3, coagulation factor IX (Homo sapiens, UniProt P00740); assay: Coagulation factor activity in human plasma right after MB addition (Example 9); type: biochemical; conditions: no light
T3 construct: Varying amounts of MB were added to human plasma (2 ml aliquots); from tissue; host or cells: human plasma

coagulation factor V = target: T4, coagulation factor V (Homo sapiens, UniProt P12259); assay: as above; type: biochemical; conditions: no light
T4 construct: Varying amounts of MB were added to human plasma (2 ml aliquots); from tissue; host or cells: human plasma

VSV [7] = type: cell-based, vesicular stomatitis virus; remark: listed apart in the source
Vesicular Stomatitis = type: cell-based

T4 sequence (P12259 29-2224): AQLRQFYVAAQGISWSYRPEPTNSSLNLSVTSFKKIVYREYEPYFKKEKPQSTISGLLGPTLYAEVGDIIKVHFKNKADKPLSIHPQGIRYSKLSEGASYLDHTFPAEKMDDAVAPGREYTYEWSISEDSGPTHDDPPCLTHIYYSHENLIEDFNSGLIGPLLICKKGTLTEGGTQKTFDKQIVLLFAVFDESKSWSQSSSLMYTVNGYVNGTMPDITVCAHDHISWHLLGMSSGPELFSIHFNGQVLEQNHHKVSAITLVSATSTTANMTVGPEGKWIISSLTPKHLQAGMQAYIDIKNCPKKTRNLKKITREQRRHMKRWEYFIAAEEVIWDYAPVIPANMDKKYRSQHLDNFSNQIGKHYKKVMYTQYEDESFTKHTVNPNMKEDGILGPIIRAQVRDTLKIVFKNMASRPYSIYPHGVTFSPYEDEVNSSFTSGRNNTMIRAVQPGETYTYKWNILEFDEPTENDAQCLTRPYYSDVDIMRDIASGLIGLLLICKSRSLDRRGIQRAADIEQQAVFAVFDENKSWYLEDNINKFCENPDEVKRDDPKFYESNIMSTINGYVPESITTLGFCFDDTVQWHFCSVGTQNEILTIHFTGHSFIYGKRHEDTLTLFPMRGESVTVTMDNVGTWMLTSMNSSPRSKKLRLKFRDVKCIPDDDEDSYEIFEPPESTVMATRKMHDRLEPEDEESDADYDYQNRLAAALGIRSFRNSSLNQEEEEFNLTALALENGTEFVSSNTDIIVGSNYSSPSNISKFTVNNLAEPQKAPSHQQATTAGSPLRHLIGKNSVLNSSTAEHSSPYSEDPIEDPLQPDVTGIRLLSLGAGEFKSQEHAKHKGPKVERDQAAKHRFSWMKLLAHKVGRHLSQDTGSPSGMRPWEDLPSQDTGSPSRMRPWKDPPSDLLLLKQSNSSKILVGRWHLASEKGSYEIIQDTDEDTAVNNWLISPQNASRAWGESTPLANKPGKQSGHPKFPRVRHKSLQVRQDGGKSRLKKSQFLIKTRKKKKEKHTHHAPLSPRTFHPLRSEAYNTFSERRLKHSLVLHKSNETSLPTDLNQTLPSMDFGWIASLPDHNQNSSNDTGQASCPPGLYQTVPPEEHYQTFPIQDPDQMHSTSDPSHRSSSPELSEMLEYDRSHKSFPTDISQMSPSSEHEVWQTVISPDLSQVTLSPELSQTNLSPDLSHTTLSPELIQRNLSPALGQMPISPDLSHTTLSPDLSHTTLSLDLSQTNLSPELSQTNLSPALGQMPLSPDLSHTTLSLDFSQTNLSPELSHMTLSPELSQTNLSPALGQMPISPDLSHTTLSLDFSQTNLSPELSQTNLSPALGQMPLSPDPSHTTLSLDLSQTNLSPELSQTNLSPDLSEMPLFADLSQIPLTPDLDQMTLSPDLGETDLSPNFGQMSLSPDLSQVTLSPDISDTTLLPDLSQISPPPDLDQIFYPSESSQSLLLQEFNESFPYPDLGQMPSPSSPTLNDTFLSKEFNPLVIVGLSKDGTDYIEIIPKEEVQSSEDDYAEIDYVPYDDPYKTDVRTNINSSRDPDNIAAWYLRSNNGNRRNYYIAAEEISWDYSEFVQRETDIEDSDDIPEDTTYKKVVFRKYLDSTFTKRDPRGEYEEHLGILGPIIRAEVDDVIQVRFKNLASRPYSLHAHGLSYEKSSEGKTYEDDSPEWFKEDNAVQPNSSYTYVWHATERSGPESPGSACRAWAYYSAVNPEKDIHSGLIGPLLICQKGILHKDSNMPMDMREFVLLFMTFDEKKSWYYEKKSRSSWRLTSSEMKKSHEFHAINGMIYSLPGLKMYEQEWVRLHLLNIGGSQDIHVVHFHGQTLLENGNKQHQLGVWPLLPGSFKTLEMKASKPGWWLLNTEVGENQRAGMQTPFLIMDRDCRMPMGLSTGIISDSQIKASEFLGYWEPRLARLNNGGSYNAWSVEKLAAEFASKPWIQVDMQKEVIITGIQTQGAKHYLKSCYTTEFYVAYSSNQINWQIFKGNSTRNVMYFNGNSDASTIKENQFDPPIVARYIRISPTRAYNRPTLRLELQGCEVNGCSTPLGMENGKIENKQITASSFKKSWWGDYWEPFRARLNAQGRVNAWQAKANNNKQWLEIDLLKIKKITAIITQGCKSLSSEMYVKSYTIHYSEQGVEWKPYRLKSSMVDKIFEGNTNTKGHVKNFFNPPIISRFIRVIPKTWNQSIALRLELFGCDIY
T3 sequence (P00740 47-461): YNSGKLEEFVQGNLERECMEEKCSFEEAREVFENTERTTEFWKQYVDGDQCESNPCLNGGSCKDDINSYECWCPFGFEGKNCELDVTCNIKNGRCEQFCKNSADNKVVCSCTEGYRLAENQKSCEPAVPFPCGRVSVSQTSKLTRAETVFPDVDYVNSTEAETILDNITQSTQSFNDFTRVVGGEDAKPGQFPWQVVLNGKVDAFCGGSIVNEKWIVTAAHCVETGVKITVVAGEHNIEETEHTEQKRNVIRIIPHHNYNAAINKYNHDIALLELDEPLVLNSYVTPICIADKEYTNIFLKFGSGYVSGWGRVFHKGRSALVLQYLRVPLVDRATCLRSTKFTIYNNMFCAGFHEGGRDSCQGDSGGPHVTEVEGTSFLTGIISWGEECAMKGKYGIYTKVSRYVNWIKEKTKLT
T2 sequence (P12259 29-2224): as the sequence (P12259 29-2224) above
T1 sequence (P00451 20-1332 limits assumed): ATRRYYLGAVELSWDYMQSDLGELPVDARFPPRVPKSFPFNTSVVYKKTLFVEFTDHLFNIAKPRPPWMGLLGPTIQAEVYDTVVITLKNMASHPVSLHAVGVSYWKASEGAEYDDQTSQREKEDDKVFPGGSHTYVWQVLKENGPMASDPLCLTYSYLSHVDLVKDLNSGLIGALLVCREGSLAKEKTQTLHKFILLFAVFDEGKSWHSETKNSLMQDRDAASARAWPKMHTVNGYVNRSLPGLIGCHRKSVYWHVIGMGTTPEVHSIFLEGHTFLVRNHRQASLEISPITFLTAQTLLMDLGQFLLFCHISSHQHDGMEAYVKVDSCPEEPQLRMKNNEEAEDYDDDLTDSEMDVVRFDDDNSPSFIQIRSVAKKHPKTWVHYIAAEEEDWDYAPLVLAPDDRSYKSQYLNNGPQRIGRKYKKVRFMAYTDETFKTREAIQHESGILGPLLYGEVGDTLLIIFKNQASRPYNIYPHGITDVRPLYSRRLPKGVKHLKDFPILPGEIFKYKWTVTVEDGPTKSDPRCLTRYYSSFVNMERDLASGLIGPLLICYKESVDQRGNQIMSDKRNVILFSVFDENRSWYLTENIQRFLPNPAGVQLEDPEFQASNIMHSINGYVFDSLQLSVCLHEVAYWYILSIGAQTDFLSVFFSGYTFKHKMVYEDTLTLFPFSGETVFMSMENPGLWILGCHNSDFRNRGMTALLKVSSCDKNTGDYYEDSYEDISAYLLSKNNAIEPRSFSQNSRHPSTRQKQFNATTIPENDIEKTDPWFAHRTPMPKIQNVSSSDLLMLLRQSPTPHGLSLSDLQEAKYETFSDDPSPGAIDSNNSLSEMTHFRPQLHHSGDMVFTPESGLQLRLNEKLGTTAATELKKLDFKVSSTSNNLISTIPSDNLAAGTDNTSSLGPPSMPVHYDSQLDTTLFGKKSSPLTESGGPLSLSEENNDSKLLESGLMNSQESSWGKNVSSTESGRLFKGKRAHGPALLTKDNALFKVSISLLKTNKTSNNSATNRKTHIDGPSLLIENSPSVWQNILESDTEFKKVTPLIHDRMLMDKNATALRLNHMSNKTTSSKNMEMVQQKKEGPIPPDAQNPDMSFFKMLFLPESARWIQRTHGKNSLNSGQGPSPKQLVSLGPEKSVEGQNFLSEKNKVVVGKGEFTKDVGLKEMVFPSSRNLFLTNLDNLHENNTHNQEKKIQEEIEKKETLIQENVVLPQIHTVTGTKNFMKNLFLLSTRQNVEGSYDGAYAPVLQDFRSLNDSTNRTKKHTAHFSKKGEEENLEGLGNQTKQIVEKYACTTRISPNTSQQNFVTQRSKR
T1 sequence (P00451 1668-2351 limits assumed): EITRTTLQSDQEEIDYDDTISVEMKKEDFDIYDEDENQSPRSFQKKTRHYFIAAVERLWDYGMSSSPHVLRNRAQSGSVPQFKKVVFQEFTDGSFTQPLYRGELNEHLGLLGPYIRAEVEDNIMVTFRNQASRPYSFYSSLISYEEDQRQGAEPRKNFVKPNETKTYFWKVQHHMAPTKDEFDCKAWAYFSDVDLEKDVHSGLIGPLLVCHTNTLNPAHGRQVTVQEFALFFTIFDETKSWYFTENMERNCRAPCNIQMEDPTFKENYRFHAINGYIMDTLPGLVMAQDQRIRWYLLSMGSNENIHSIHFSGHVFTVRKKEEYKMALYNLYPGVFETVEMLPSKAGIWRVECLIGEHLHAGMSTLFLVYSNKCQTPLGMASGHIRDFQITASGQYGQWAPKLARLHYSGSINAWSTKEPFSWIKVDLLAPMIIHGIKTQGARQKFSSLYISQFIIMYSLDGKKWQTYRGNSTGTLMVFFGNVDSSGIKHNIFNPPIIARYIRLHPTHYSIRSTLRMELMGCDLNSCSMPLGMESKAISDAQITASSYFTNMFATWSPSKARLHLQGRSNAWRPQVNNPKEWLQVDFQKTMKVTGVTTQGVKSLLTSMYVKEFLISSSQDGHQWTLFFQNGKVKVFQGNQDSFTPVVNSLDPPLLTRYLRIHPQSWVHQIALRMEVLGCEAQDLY

CN(C)c1ccc2nc3ccc(=[N+](C)C)cc-3sc2c1 [MB, methylene blue]
reduction of infectious VSV titer (VSV [1]): more than 6 log10
Factor VIII (factor VIII): 0.42 U/ml
Inactivation Rate (Suid Herpes Type 1): 4.43 * log10 TCID50
Inactivation Rate (West Nile): >6.50 log10 TCID50
Inactivation Rate (Sindbis): >9.73 log10 TCID50
reduction of infectious titer of VSV by irradiation [2]: more than 6 log10
Inactivation Rate (Calici): >3.9 * log10 TCID50
Inactivation Rate (SV40): >4.00 log10 TCID50
Inactivation Rate (Semliki Forest): >7.00 log10 TCID50
Inactivation Rate (HIV-1 [3]): >6.50 log10 TCID50
side effects in therapeutic use [4]: without any significant side effects
Inactivation Rate (Influenza): 5.10 log10 TCID50
effect of the dye alone on the virus (HIV-1 [5]; MB 1 μM, no illumination): not detrimental to the virus
reduction of viral infectivity (HIV-1 [5]; MB 1 μM, within the first 10 minutes of light exposure): approx. 6 log10 steps
Log10 TCID50/ml HIV-1 (HIV-1 [5]; Sample A, MB 1 μM without light, 0 min): 6.00 Log10 TCID50/ml
Log10 TCID50/ml HIV-1 (HIV-1 [5]; Sample A, MB 1 μM without light, 2 min): 5.94 Log10 TCID50/ml
Log10 TCID50/ml HIV-1 (HIV-1 [5]; Sample A, MB 1 μM without light, 5 min): 5.94 Log10 TCID50/ml
Log10 TCID50/ml HIV-1 (HIV-1 [5]; Sample A, MB 1 μM without light, 10 min): 5.94 Log10 TCID50/ml
Log10 TCID50/ml HIV-1 (HIV-1 [5]; Sample A, MB 1 μM without light, 15 min): 6.06 Log10 TCID50/ml
Log10 TCID50/ml HIV-1 (HIV-1 [5]; Sample A, MB 1 μM without light, 30 min): 5.76 Log10 TCID50/ml
Log10 TCID50/ml HIV-1 (HIV-1 [5]; Sample A, MB 1 μM without light, 60 min): 5.70 Log10 TCID50/ml
Log10 TCID50/ml HIV-1 (HIV-1 [5]; Sample C, MB 1 μM + light 45,000 Lux, exposure 0 min): 5.82 Log10 TCID50/ml
Log10 TCID50/ml HIV-1 (HIV-1 [5]; Sample C, MB 1 μM + light 45,000 Lux, exposure 2 min): 3.37 Log10 TCID50/ml
Log10 TCID50/ml HIV-1 (HIV-1 [5]; Sample C, MB 1 μM + light 45,000 Lux, exposure 5 min): 1.5 Log10 TCID50/ml
Log10 TCID50/ml HIV-1 (HIV-1 [5]; Sample C, MB 1 μM + light 45,000 Lux, exposure 10 min): ≦0.5 Log10 TCID50/ml
Log10 TCID50/ml HIV-1 (HIV-1 [5]; Sample C, MB 1 μM + light 45,000 Lux, exposure 15 min): ≦0.5 Log10 TCID50/ml
Log10 TCID50/ml HIV-1 (HIV-1 [5]; Sample C, MB 1 μM + light 45,000 Lux, exposure 30 min): ≦0.5 Log10 TCID50/ml
Log10 TCID50/ml HIV-1 (HIV-1 [5]; Sample C, MB 1 μM + light 45,000 Lux, exposure 60 min): ≦0.5 Log10 TCID50/ml
reduction of infectious titer of VSV (VSV [6]): more than 5 log10-steps
Inactivation Rate (Herpes Simplex): >5.50 * log10 TCID50
Inactivation Rate (Bovine Herpes): >8.11 * log10 TCID50
Factor V (factor V): 0.96 U/ml
Factor IX (coagulation factor IX; Methylene Blue 1 μM): 1.9 E/ml
Factor IX (coagulation factor IX; Methylene Blue 2.5 μM): 1.6 E/ml
Factor IX (coagulation factor IX; Methylene Blue 5 μM): 1.45 E/ml
Factor IX (coagulation factor IX; Methylene Blue 10 μM): 1.20 E/ml
Factor IX (coagulation factor IX; Methylene Blue 20 μM): 1.10 E/ml
MB concentration from which factor IX activity is inhibited (coagulation factor IX): 2.5 µM
Factor V (coagulation factor V; Methylene Blue 1 μM): 0.76 E/ml
Factor V (coagulation factor V; Methylene Blue 2.5 μM): 0.78 E/ml
Factor V (coagulation factor V; Methylene Blue 5 μM): 0.74 E/ml
Factor V (coagulation factor V; Methylene Blue 10 μM): 0.54 E/ml
Factor V (coagulation factor V; Methylene Blue 20 μM): 0.44 E/ml
MB concentration from which factor V activity is inhibited (coagulation factor V): about 10 μM
inactivation of VSV (VSV [7]): only partial inactivation
time until viral infectivity almost completely reduced to the detection limit (VSV [7]): 15 to 30 min
Inactivation Rate (Vesicular Stomatitis): >4.89 * log10 TCID50
